Test system: JEG-3 (human placental choriocarcinoma cell line)
Experiment: Real-time RT-PCR quantification of gene expression in drug-treated JEG-3
Format: cell-based
Conditions: for Real time PCR (Relative ratio), KIAA0310: GenBank AB002308; for Real time PCR (Relative ratio), ATP10B: GenBank AB018258; for Real time PCR (Relative ratio), TTF2: GenBank AB209845; for Real time PCR (Relative ratio), TncRNA: GenBank AF001893; for Real time PCR (Relative ratio), C4orf19: GenBank AK001879; for Real time PCR (Relative ratio), CYP19A1: GenBank AK023571; for Real time PCR (Relative ratio), SLC40A1: GenBank AK023574; for Real time PCR (Relative ratio), ABTB2: GenBank AK095632; for Real time PCR (Relative ratio), TUBB3: GenBank AK122757; for Real time PCR (Relative ratio), MGC27016: GenBank AK125877; for Real time PCR (Relative ratio), GLCCI1: GenBank AK126731; for Real time PCR (Relative ratio), TFCP2L4: GenBank BC036890; for Real time PCR (Relative ratio), RGS2: GenBank BC042755; for Real time PCR (Relative ratio), SIAT7A: GenBank BC063830; for Real time PCR (Relative ratio), B7-H4: GenBank BX648021; for Real time PCR (Relative ratio), COBLL1: GenBank BX649112; for Real time PCR (Relative ratio), CGA: GenBank NM_000735; for Real time PCR (Relative ratio), PARP1: GenBank NM_001618; for Real time PCR (Relative ratio), SERPINB9: GenBank NM_004155; for Real time PCR (Relative ratio), ST8SIA4: GenBank NM_005668; for Real time PCR (Relative ratio), ABL1: GenBank NM_007313; for Real time PCR (Relative ratio), GRLF1: GenBank NM_024342; for Real time PCR (Relative ratio), LGP1: GenBank NM_032484; for Real time PCR (Relative ratio), NCOA3: GenBank NM_181659; for Real time PCR (Relative ratio), SR140: GenBank XM_031553; for Real time PCR (Relative ratio), SLC7A8: GenBank Y18483
Method: My IQ Real-Time PCR (Bio-Rad, USA) was performed to quantify the expressions of those genes.
Particularly, cDNA was synthesized using oligo dT primer and Superscript kit (Omniscipt™ kit, Qiagen, Co., USA) by reverse transcription. 0.2 μl of the cDNA, 3.8 μl of water, 0.5 μg of a sense primer, 0.5 μg of an antisense primer, and […] of SYBR Green I supermix (Bio-Rad, USA) were mixed, which was placed in a PCR tube, followed by real-time RT-PCR in My IQ real-time PCR machine as follows: Step 1: 95°, 3 minutes; Step 2 (45 cycles): Step 2-1: 95°, 10 seconds; Step 2-2: 55-65° 45 seconds; Step 3: 95°, 1 minute; Step 4: 55°, 1 minute; Step 5 (80 cycles): 55°, 10 seconds. SYBR green I (Bio-Rad, USA) staining was performed to quantify the PCR product. SYBR I staining is the staining method using double stranded DNA binding. So, the more double stranded DNA is generated during PCR, the stronger the fluorescence intensity becomes. First, target gene and endogenous control (GAPDH) primers were added to SYBR green master mix, followed by PCR. Then, primer optimization was performed to determine a proper concentration. Synthesized cDNA and each primer were mixed (Table 4), to which SYBR master mix was added, followed by PCR.

Row | Structure (SMILES) | Real time PCR (Relative ratio), KIAA0310 | Real time PCR (Relative ratio), ATP10B | Real time PCR (Relative ratio), TTF2 | Real time PCR (Relative ratio), TncRNA | Real time PCR (Relative ratio), C4orf19 | Real time PCR (Relative ratio), CYP19A1 | Real time PCR (Relative ratio), SLC40A1 | Real time PCR (Relative ratio), ABTB2 | Real time PCR (Relative ratio), TUBB3 | Real time PCR (Relative ratio), MGC27016 | Real time PCR (Relative ratio), GLCCI1 | Real time PCR (Relative ratio), TFCP2L4 | Real time PCR (Relative ratio), RGS2 | Real time PCR (Relative ratio), SIAT7A | Real time PCR (Relative ratio), B7-H4 | Real time PCR (Relative ratio), COBLL1 | Real time PCR (Relative ratio), CGA | Real time PCR (Relative ratio), PARP1 | Real time PCR (Relative ratio), SERPINB9 | Real time PCR (Relative ratio), ST8SIA4 | other results
1 | CN(Cc1cnc2nc(N)nc(N)c2n1)c1ccc(C(=O)N[C@@H](CCC(=O)O)C(=O)O)cc1 [MTX, methotrexate] | 3.9217 | 2.6467 | 1.9659 | 2.2297 | 36.2463 | 1.7007 | 6.0098 | 0.1356 | 4.7892 | 2.3343 | 2.5941 | 0.7146 | 5.6716 | 8.3865 | 0.4198 | 1.4978 | 0.0829 | 0.2381 | 1.5208 | 0.955 | Real time PCR (Relative ratio), ABL1: 0.5159; Real time PCR (Relative ratio), GRLF1: 0.7048; Real time PCR (Relative ratio), LGP1: 0.6468; Real time PCR (Relative ratio), NCOA3: 2.4457; Real time PCR (Relative ratio), SR140: 0.1357; Real time PCR (Relative ratio), SLC7A8: 2.8779
2 | CCCC(CCC)C(=O)O [VPA, valproic acid] | 5.7397 | 2.7083 | 1.6637 | 1.8204 | 2.9592 | 2.15 | 1.9425 | 4.0469 | 1.9015 | 2.3155 | 1.6023 | 2.292 | 2.8779 | 4.5249 | 0.0755 | 12.2271 | 2.6497 | 0.7443 | 7.1977 | 3.7161 | Real time PCR (Relative ratio), ABL1: 0.8681; Real time PCR (Relative ratio), GRLF1: 0.8281; Real time PCR (Relative ratio), LGP1: 0.4982; Real time PCR (Relative ratio), NCOA3: 2.1913; Real time PCR (Relative ratio), SR140: 0.3565; Real time PCR (Relative ratio), SLC7A8: 6.3157
